From publication PMC5374206, “Anti-bacterial and Anti-biofilm Evaluation of Thiazolopyrimidinone Derivatives Targeting the Histidine Kinase YycG Protein of Staphylococcus epidermidis” (Frontiers in Microbiology, 2017)
≈ marks a conversion by molar mass, not a printed value. Entries after “also recorded” stand apart in the source; their conditions may differ.

Columns and labels:
[1] = biological target: T1, YycG′ protein (Staphylococcus epidermidis, UniProt Q5HK19); test: Inhibition of YycG′ autophosphorylation (Kinase-Glo Luminescent Kinase Assay); type: biochemical; details: 4 μM ATP; for inhibition of the enzymatic activity of YycG′ protein: 100 μM derivative, 2 μg YycG′ protein; for IC50: Kinase-Glo, 2 μg YycG′, read-out: IC50 (inhibition of autophosphorylation of recombinant YycG′)
T1 construct: made in house; host or cells: E. coli BL21(DE3)
T1 sequence (Q5HK19 384-602 limits assumed): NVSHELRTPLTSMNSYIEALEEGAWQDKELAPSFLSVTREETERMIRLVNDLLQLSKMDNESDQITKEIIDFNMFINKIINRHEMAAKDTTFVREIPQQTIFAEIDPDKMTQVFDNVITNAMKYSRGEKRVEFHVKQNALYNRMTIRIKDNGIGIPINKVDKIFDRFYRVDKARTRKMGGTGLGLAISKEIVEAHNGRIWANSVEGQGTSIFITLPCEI
Protocol: The construction of the recombinant plasmid pET28a-YycG′ (containing the HATPase_c and HisKA domains of YycG) has been previously described (Liu et al., [2014]). After being used to transform E. coli strain BL21(DE3), this recombinant plasmid was induced to express YycG′ protein by 0.4 mM isopropyl-1-thio-β-D-galactopyranoside at 21°C for 12 h. Then, the bacterial cells were disrupted by sonication and centrifuged, the supernatant was purified by Ni–NTA agarose (Qiagen, Los Angeles, CA, USA). The inhibitory activities of the compound 5 derivatives on the ATPase activity of the YycG′ protein were measured using the Kinase-Glo™ Luminescent Kinase Assay (Promega, Madison, WI, USA). Briefly, 2 μg purified YycG′ protein was pre-incubated with a series of dilutions of the derivatives in reaction buffer [40 mM Tris (pH 7.5), 20 mM MgCl2 and 0.1 mg/ml BSA] at room temperature for 30 min, 4 μM ATP was added and incubated for 30 min at room temperature, then Kinase-Glo™ Reagent was added to detect the remaining amount of ATP, as reflected by luminescence intensity (RLU). In parallel, YycG′ protein with no addition of the derivatives was used as the control and ATP only was used as a blank. The rate of inhibition of protein phosphorylation (Rp) by the derivatives was calculated by the following equation: Rp = RLU(YycG^′+derivative+ATP+Kinase−Glo™)−RLU(YycG^′+ATP+Kinase−Glo™)/RLU(ATP+Kinase−Glo™)−RLU(YycG^′+ATP+Kinase−Glo™) × 100 IC50 (the concentration resulting in 50% inhibition of YycG′ protein autophosphorylation) was obtained by using Origin v7.0 software (OriginLab, Northampton, USA).

[2] = biological target: T2, ArlS' protein (Staphylococcus epidermidis, UniProt Q5HPC4); test: Inhibition of ArlS' autophosphorylation (Kinase-Glo Luminescent Kinase Assay); type: biochemical, S. epidermidis; details: for Inhibition of ArlS’ phosphorylation / Luminescence: 200 μM derivative, 2 μg purified protein, 4 μM ATP; for inhibitory effect on the autophosphorylation of ArlS': highest concentration 200 μM, result in words
T2 construct: made in house
T2 sequence (Q5HPC4 240-456): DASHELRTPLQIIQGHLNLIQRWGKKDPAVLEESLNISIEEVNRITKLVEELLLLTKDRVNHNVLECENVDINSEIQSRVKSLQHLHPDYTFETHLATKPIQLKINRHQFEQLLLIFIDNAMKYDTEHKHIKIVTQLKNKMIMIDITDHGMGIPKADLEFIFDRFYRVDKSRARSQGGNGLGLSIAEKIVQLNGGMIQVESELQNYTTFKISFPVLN

[3] = test system: S. aureus ATCC 49230; test: MIC tube-dilution assay; type: cell-based; details: Staphylococcus aureus, ATCC49230
Protocol: (§1) The MIC assays of the derivatives of compound 5 against S. epidermidis, S. aureus, MRSA and E. coli were performed by using the methods described previously by Wiegand et al. ([2008]). In brief, two-fold serial dilutions of the derivatives were prepared in tubes containing 4 mL MHB medium, yielding final concentrations from 200 to 0.78 μM. Bacterial cultures were grown overnight and adjusted so that the bacterial suspension turbidity was equivalent to a 0.5 McFarland standard (~1 × 10^8 CFU/mL) and further diluted to 1:200 into MHB medium. The contents in the tubes were mixed thoroughly and incubated at 37°C with shaking at 220 rpm for 16–20 h. The MIC endpoint was defined as the lowest concentration at which there was no visible growth in the tubes. The MBC values were assessed by plating 100 μL samples from each negative (no visible bacterial growth) culture tube from the MIC assays onto blank MHB agar plates. After incubation at 37°C for 24 h, the bacterial colonies on the plates were counted. The MBC was the concentration at which a 99.9% reduction of the original inoculum was observed (Pridmore et al., [2011]). In this assay, all the experiments were performed three times.

[4] = test system: S. epidermidis ATCC 12228; test: MIC tube-dilution assay; type: cell-based; details: Staphylococcus epidermidis, ATCC12228
Protocol: as §1

[5] = test system: E. coli ATCC 25922; test: MIC tube-dilution assay; type: cell-based, Escherichia coli; details: E. coli ATCC29522 (head), highest concentration used 200 μM
Protocol: as §1

[6] = test system: MRSA strain 226 young biofilms; test: Microtiter plate assay of 6 h young biofilms of MRSA; type: cell-based, S. aureus
Protocol: The biofilm-killing effect for immature (6 h old) biofilms was determined in TSB using a semi-quantitative assay. An overnight culture was diluted 1:200 into TSB medium with 0.25% glucose, and incubated in polystyrene 96-well plates at 37°C for 6 h. Biofilms were exposed to two-fold serial dilutions of the derivatives, and the plates were incubated for another 18 h at 37°C. Following the incubation and removal of non-adherent cells with 200 μl of phosphate-buffered saline, adherent biofilms were fixed with 95% methanol and stained with 2% (w/v) crystal violet. Then, the wells were washed three times with sterile distilled water and the plates were air dried for 2 h. The optical density of each well at 570 nm was determined using a 96-well plate spectrophotometer (DTX880, Beckman Coulter, USA).

[7] = test system: S. epidermidis ATCC 35984 biofilm formation; test: Flow-based biofilm inhibition assay (BioFlux); type: cell-based, Staphylococcus epidermidis; details: 2 × MIC; shear 0.15 dyn/cm^2; 16 h; result in words
Protocol: The microfluidic channels of BioFlux 48-well plates (Fluxion Biosciences, South San Francisco, CA, USA) were primed with pre-warmed (37°C) TSB medium from the outlet well at a shear setting of 2 dyn/cm^2 for 10 min. Overnight bacterial culture of S. epidermidis ATCC 35984 was subcultured to mid-log phase and then diluted 1:200 in MHB medium, bacteria were seeded from the outlet well into the channel and viewing window at a shear setting of 2 dyn/cm^2 for 3 s. […] Growth of the biofilms was monitored for up to 16 h. Images of different stages were automatically acquired at 10 min intervals with bright-field illumination.

[8] = Aqueous solubility observation; type: physicochemical; details: 200 μM; precipitated after incubation at 37°C for 12 h; result in words
[9] = Escherichia coli, ATCC 25922 / ATCC 29522

Structure (SMILES) | inhibition of the enzymatic activity of YycG′ protein [1] [%] | IC50 [1] [µM] | Inhibition of ArlS’ phosphorylation [2] [%] | inhibitory effect on the autophosphorylation of ArlS' [2] | MIC [3] [µM] | MIC [4] [µM] | MIC [5] [µM] | MIC [5, 9] [µM] | minimal biofilm-killing concentration [6] [µM] | biofilm formation under shearing forces [7] | Luminescence [2] | aqueous solubility [8]
CCOC(=O)C1=C(c2ccccc2)N=c2sc(=Cc3ccc(-c4cccc(C(=O)O)c4)o3)c(=O)n2C1c1ccc(F)cc1 (stereo not drawn) [H5-32, 2-[5-(3-carboxy-phenyl)-furan-2-ylmethylene]-5-(4-fluoro-phenyl)-3-oxo-7-phenyl-2,3-dihydro-5H-thiazolo[3,2-a]pyrimidine-6-carboxylic acid ethyl ester] | 55.61 | 83.9 | -5.9 | None of them showed an inhibitory effect | 3.13 (≈ 1.86 µg/mL) | 6.25 (≈ 3.72 µg/mL) | >200 | > 200 | 200 | significant decrease in the biofilm formation; also recorded: strongly inhibited biofilm formation |  | 
O=C(O)c1cccc(-c2ccc(C=c3sc4n(c3=O)C(c3ccc(F)cc3)C=C(c3ccccc3)N=4)o2)c1 (stereo not drawn) [H5-33, 3-{5-[5-(4-fluoro-phenyl)-3-oxo-7-phenyl-5H-thiazolo [3,2-a]pyrimidin-2-ylidenemethyl]-furan-2-yl}-benzoic acid] | 77.04 | 64.9 | -5.1 | None of them showed an inhibitory effect | 3.13 (≈ 1.64 µg/mL) | 3.13 (≈ 1.64 µg/mL) | >200 | > 200 | 200 | significant decrease in the biofilm formation; also recorded: strongly inhibited biofilm formation | 17786 + 382 RLU | 
CCOC(=O)C1=C(c2ccccc2)N=c2sc(=Cc3ccc(-c4ccc(C(=O)O)cc4)o3)c(=O)n2C1c1ccc(Cl)cc1 (stereo not drawn) [H5-34, 2-[5-(4-carboxy-phenyl)-furan-2-ylmethylene]-5-(4-chloro-phenyl)-3-oxo-7-phenyl-2,3-dihydro-5H-thiazolo[3,2-a]pyrimidine-6-carboxylic acid ethyl ester] | 80.72 | 61.9 | -5.6 | None of them showed an inhibitory effect | 3.13 (≈ 1.91 µg/mL) | 3.13 (≈ 1.91 µg/mL) | >200 | > 200 | 200 | significant decrease in the biofilm formation; also recorded: strongly inhibited biofilm formation | 17747 + 622 RLU | limited aqueous solubility
CCOC(=O)C1=C(c2ccccc2)N=c2sc(=Cc3ccc(-c4ccc(C(=O)O)cc4)o3)c(=O)n2C1c1ccc(F)cc1 (stereo not drawn) [H5-35, 2-[5-(4-carboxy-phenyl)-furan-2-ylmethylene]-5-(4-fluoro-phenyl)-3-oxo-7-phenyl-2,3-dihydro-5H-thiazolo[3,2-a]pyrimidine-6-carboxylic acid ethyl ester] | 63.94 | 78.2 | -1.5 | None of them showed an inhibitory effect | 6.25 (≈ 3.72 µg/mL) | 3.13 (≈ 1.86 µg/mL) | >200 | > 200 | 200 | significant decrease in the biofilm formation; also recorded: strongly inhibited biofilm formation | 18075 + 285 RLU | limited aqueous solubility
